Test results: US20230312587A1, “PTERIDINONE COMPOUNDS AND USES THEREOF” (Vertex Pharmaceutical Incorporated, priority 2018, published 2023)
pIC50: −log10 of the molar value. Where two headings read alike, the source gives them in different places.

Tests used:
Type in all cases: cell-based
[1] = tested on: HepG2 parental; assay: In vitro cell viability (CellTiter-Glo), HepG2 parental; details: 96 hours, read-out: HepG2 viability
How it was run: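 Parental HepG2 cells, 5,000 per well in DMEM with 10% FBS, attached overnight, then exposed to a compound concentration range for 96 h. Viability by CellTiter-Glo luminescence; IC50 reported in bins (A <0.5 µM up to D ≥10 µM).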

[2] = tested on: Hek293 WFS1 over-expressor; assay: In vitro cell viability (CellTiter-Glo), Hek293 WFS1 over-expressor; details: read-out: Hek293 WFS1 viability
How it was run: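 HEK293 cells stably overexpressing WFS1 via retroviral transduction (puromycin-selected), with empty-vector cells as counterpart, plated 1,000/well. Compounds added at various concentrations after overnight attachment; viability by CellTiter-Glo luminescence after 96 h, reported as IC50.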

[3] = tested on: HepG2 XBP1(u)-Luc cells; assay: HepG2 XBP1 reporter assay; details: 6 h
How it was run: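 Reporter cells are HepG2 stably carrying unspliced XBP1 fused to firefly luciferase, which becomes in-frame after IRE1alpha-mediated splicing. SteadyGlo luminescence was normalized to DMSO-treated cells for IC50 calculation.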

[4] = Homo sapiens, HEK293, Hek293 WFS1 over-expressing cells

`Cc1nc(NCc2cnn(Cc3ccc(C(F)(F)F)nc3[C@@H](C)O)c2)nc2c1NC(=O)[C@H](C)N2C` (single isomer, unassigned) [Compound 420] gave a pIC50 ([1]; Homo sapiens) of 5.70 to 6.30, a pIC50 [2, 4] of 6.22 to 7.22 and a pIC50 ([3]; Homo sapiens) of 5.00 to 5.70.
For “(7S)-2-(((1-((6-fluoro-2-isopropylpyridin-3-yl)methyl)-1H-pyrazol-4-yl)methyl)(methyl)amino)-7-isopropyl-4,8-dimethyl-7,8-dihydropteridin-6(5H)-one [Compound 430]”, the pIC50 [1] was over 6.30, the pIC50 ([2]; Hek293 WFS1 over-expressing cells) was over 7.22 and the pIC50 [3] was over 6.22.
In the case of `Cc1nc(NCc2cnn(Cc3ccc(C(F)(F)F)nc3C(C)(C)O)c2)nc2c1NC(=O)[C@H](C)N2C` [Compound 416, (7S)-2-(((1-((2-(2-hydroxypropan-2-yl)-6-(trifluoromethyl)pyridin-3-yl)methyl)-1H-pyrazol-4-yl)methyl)amino)-4,7,8-trimethyl-7,8-dihydropteridin-6(5H)-one], the pIC50 ([1]; Homo sapiens) was over 6.30, the pIC50 [2, 4] was over 7.22 and the pIC50 ([3]; Homo sapiens) was over 6.22.
`Cc1nc(NCc2cnn(C[C@H](C)c3ccc(F)cc3)c2)nc2c1NC(=O)[C@H](C)N2C` [Compound 96, (7S)-2-(((1-((R)-2-(4-fluorophenyl)propyl)-1H-pyrazol-4-yl)methyl)amino)-4,7,8-trimethyl-7,8-dihydropteridin-6(5H)-one] gave a pIC50 ([1]; Homo sapiens) of 5.00 to 5.70, a pIC50 [2, 4] of 6.22 to 7.22 and a pIC50 ([3]; Homo sapiens) of over 6.22.
Compound `Cc1nc(NCc2cnn(Cc3ccc(C(F)(F)F)nc3Cl)c2)nc2c1NC(=O)[C@H](C)N2C` [Compound 418, (7S)-2-(((1-((2-chloro-6-(trifluoromethyl)pyridin-3-yl)methyl)-1H-pyrazol-4-yl)methyl)amino)-4,7,8-trimethyl-7,8-dihydropteridin-6(5H)-one] has a pIC50 ([1]; Homo sapiens) of over 6.30, a pIC50 [2, 4] of over 7.22 and a pIC50 ([3]; Homo sapiens) of over 6.22.
Compound `Cc1nc(NCc2cnn(Cc3cnc(Cl)c(F)c3)c2)nc2c1NC(=O)[C@H](C(C)C)N2C` [Compound 424, (7S)-2-(((1-((6-chloro-5-fluoropyridin-3-yl)methyl)-1H-pyrazol-4-yl)methyl)amino)-7-isopropyl-4,8-dimethyl-7,8-dihydropteridin-6(5H)-one] has a pIC50 ([1]; Homo sapiens) of over 6.30, a pIC50 [2, 4] of over 7.22 and a pIC50 ([3]; Homo sapiens) of over 6.22.
With `Cc1nc(NCc2cnn(C3CCN(C(=O)c4ccc(F)cc4)CC3)c2)nc2c1NC(=O)[C@H](C)N2C` [Compound 125, (7S)-2-(((1-(1-(4-Fluorobenzoyl)piperidin-4-yl)-1H-pyrazol-4-yl)methyl)amino)-4,7,8-trimethyl-7,8-dihydropteridin-6(5H)-one] the pIC50 ([1]; Homo sapiens) was 5.00 to 5.70, the pIC50 [2, 4] was 5.52 to 6.22 and the pIC50 ([3]; Homo sapiens) was at most 5.00.
Compound `Cc1nc(NCc2cnn(CC(C)(O)c3ccc(F)cc3)c2)nc2c1NC(=O)[C@H](C)N2C` (stereo partly drawn) [Compound 128, (7S)-2-(((1-(2-(4-fluorophenyl)-2-hydroxypropyl)-1H-pyrazol-4-yl)methyl)amino)-4,7,8-trimethyl-7,8-dihydropteridin-6(5H)-one] has a pIC50 ([1]; Homo sapiens) of 5.00 to 5.70, a pIC50 [2, 4] of 5.52 to 6.22 and a pIC50 ([3]; Homo sapiens) of 5.00 to 5.70.
Compound `Cc1cnc(C(F)(F)F)nc1-n1cc(CNc2ncc3c(n2)N(C)[C@@H](C)C(=O)N3)cn1` [Compound 164, (7S)-7,8-dimethyl-2-(((1-(5-methyl-2-(trifluoromethyl)pyrimidin-4-yl)-1H-pyrazol-4-yl)methyl)amino)-7,8-dihydropteridin-6(5H)-one] has a pIC50 ([1]; Homo sapiens) of at most 5.00, a pIC50 [2, 4] of 5.52 to 6.22 and a pIC50 ([3]; Homo sapiens) of 5.00 to 5.70.
`CC[C@H]1C(=O)Nc2cnc(NCc3cnn(Cc4ccc(C(F)(F)F)nc4)c3)nc2N1C` [Compound 427, (7S)-7-ethyl-8-methyl-2-(((1-((6-(trifluoromethyl)pyridin-3-yl)methyl)-1H-pyrazol-4-yl)methyl)amino)-7,8-dihydropteridin-6(5H)-one] showed a pIC50 ([1]; Homo sapiens) of at most 5.00, a pIC50 [2, 4] of 6.22 to 7.22 and a pIC50 ([3]; Homo sapiens) of 5.70 to 6.22.
